In ChEMBL document CHEMBL5241064, “Specific non-genetic IAP-based protein erasers (SNIPERs) as a potential therapeutic strategy” (Eur J Med Chem, 2021):
Values belong to the compound of their own block, whether it stands above or below them.

Legend:
[1] = target: Baculoviral IAP repeat-containing protein 2/Cellular retinoic acid-binding protein 2 (Homo sapiens, UniProt P29373+Q13490); test: Protac activity at cIAP1 (unknown origin)/CRABP-II (unknown origin) assessed as protein degradation
[2] = target: Baculoviral IAP repeat-containing protein 2/E3 ubiquitin-protein ligase XIAP/Breakpoint cluster region protein/Tyrosine-protein kinase ABL1 (Homo sapiens, UniProt P00519+P11274+P98170+Q13490); test: Protac activity at IAP/BCR-ABL in human K562 cells assessed as induction of BCR-ABL protein degradation measured after 6 hrs by Western blot analysis; format: cell-based
[3] = target: E3 ubiquitin-protein ligase XIAP/Tyrosine-protein kinase ABL1/Breakpoint cluster region protein (Homo sapiens, UniProt P00519+P11274+P98170); test: Protac activity at XIAP/BCR-ABL in human K562 cells assessed as induction of BCR-ABL protein degradation measured after 6 hrs by Western blot analysis; format: cell-based
E3 ubiquitin-protein ligase XIAP/Tyrosine-protein kinase ABL1/Breakpoint cluster region protein, sequence (P00519 whole entry): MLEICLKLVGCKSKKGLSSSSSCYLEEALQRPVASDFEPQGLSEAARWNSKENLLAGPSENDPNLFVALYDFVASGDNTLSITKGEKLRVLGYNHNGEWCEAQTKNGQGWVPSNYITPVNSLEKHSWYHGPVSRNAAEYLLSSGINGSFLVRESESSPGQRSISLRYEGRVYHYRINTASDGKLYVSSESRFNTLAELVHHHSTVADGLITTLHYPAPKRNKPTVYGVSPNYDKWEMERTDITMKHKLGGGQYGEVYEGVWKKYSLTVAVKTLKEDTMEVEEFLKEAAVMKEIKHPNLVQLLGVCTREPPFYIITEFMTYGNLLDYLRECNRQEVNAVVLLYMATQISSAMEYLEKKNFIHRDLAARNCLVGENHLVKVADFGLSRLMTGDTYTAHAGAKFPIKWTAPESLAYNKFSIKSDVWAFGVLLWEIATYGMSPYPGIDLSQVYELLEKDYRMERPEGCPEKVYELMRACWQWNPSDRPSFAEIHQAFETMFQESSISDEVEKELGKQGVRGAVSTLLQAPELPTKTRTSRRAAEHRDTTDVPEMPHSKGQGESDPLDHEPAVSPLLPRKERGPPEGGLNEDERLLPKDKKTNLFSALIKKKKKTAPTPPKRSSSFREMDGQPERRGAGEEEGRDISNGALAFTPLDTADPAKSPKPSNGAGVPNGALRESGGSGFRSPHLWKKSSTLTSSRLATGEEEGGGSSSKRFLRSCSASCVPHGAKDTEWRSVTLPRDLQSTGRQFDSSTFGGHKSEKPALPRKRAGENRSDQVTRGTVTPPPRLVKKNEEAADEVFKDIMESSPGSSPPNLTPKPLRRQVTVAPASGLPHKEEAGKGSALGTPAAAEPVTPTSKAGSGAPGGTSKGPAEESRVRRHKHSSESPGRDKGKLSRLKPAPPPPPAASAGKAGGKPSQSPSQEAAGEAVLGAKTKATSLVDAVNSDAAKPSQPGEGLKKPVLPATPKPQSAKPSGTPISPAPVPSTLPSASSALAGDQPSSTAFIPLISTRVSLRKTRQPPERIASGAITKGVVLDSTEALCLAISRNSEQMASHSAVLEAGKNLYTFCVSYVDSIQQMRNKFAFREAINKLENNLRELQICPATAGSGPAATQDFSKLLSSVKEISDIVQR
E3 ubiquitin-protein ligase XIAP/Tyrosine-protein kinase ABL1/Breakpoint cluster region protein, sequence (P98170 whole entry): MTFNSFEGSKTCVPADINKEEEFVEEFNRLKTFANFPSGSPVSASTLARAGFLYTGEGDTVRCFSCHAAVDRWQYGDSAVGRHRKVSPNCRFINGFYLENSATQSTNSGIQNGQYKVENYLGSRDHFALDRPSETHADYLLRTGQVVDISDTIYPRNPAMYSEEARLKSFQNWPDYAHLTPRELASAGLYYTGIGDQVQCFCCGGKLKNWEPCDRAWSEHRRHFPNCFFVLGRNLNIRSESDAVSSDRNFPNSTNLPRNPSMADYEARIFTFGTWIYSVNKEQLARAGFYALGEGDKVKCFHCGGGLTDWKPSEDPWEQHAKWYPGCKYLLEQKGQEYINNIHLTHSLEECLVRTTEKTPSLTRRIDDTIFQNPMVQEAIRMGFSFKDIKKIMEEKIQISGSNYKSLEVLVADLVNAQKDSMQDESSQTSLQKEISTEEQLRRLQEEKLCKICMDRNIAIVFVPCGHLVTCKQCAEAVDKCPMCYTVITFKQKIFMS
E3 ubiquitin-protein ligase XIAP/Tyrosine-protein kinase ABL1/Breakpoint cluster region protein, sequence (P11274 whole entry): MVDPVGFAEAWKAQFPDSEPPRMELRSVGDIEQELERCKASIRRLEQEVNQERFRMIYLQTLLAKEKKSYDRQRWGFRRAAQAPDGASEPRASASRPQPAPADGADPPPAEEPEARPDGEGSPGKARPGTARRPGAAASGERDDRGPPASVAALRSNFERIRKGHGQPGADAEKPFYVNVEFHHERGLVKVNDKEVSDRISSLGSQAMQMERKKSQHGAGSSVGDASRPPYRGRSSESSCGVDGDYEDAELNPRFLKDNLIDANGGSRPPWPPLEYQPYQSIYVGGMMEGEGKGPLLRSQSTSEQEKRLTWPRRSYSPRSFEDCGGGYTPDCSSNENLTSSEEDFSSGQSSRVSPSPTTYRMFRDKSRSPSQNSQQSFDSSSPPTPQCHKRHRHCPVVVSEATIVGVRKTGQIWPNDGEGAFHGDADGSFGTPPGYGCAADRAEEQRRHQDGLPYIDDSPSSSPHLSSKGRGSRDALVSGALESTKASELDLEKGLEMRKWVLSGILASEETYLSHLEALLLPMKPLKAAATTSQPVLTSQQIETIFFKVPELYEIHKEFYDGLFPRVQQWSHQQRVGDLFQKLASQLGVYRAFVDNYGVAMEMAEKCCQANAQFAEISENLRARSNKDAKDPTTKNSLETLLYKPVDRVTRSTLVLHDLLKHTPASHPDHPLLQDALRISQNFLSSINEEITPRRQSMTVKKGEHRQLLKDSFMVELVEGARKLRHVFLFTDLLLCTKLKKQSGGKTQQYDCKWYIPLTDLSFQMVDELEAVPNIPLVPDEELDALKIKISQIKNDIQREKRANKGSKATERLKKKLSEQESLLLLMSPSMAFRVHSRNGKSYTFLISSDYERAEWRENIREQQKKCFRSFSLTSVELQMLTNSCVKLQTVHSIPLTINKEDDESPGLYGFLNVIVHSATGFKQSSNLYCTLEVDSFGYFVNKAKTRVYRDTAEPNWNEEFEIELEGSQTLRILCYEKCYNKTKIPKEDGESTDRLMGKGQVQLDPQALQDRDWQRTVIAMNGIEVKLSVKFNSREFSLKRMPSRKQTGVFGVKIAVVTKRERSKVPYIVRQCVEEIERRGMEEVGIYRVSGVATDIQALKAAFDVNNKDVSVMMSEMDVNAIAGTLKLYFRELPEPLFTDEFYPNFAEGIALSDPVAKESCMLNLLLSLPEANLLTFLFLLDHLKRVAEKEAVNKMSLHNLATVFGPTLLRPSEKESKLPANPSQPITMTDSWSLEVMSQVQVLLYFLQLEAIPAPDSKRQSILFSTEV

[4] = target: Estrogen receptor/E3 ubiquitin-protein ligase XIAP (Homo sapiens, UniProt P03372+P98170); test: Protac activity at XIAP (unknown origin)/ERalpha (unknown origin) assessed as protein degradation; format: protein assay
Estrogen receptor/E3 ubiquitin-protein ligase XIAP, sequence (P03372 whole entry): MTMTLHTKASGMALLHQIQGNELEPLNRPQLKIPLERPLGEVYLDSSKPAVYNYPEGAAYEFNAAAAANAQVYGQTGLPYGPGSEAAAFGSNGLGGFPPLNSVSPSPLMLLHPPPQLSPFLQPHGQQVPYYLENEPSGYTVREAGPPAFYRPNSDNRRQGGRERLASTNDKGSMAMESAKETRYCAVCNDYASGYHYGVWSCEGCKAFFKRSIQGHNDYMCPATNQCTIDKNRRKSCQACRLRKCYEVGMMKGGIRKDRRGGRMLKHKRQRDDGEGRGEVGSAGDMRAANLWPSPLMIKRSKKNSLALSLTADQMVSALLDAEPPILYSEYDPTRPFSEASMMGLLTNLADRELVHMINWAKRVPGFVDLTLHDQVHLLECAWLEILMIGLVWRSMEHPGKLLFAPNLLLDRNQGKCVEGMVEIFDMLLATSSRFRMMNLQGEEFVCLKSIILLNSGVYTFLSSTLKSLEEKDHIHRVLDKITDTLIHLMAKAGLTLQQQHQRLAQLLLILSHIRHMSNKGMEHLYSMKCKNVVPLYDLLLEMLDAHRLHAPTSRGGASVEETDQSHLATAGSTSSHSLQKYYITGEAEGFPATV
Estrogen receptor/E3 ubiquitin-protein ligase XIAP, sequence (P98170 whole entry): as the sequence (P98170 whole entry) above

Baculoviral IAP repeat-containing protein 2/Cellular retinoic acid-binding protein 2, sequence (P29373 whole entry): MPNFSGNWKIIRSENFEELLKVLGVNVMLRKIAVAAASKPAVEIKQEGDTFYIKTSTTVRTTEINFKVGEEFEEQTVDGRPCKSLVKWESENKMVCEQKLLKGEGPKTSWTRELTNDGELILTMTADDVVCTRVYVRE
Baculoviral IAP repeat-containing protein 2/Cellular retinoic acid-binding protein 2, sequence (Q13490 whole entry): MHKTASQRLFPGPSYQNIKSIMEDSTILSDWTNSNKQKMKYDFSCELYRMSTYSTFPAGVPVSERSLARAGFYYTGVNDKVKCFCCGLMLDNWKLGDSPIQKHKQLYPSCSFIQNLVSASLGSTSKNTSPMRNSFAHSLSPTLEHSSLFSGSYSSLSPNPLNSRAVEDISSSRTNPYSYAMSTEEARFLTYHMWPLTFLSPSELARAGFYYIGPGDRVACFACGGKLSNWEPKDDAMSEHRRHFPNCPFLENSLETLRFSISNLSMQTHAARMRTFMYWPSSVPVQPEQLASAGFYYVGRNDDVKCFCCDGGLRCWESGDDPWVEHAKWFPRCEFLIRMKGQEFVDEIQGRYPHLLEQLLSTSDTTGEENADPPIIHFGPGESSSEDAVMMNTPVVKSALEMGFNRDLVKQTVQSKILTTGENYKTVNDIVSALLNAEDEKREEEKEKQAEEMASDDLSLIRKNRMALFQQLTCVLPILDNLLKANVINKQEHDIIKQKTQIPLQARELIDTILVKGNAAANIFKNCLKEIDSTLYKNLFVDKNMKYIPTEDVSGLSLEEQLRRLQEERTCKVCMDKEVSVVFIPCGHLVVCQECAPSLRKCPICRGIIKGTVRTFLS

- EC50 [1]: ≥ 1000 nM
Structure (SMILES): CC1=C(/C=C/C(C)=C/C=C/C(C)=C/C(=O)O)C(C)(C)CC/C1=N\OCC(=O)NCCOCCOCCOC(=O)[C@H](CC(C)C)NC(=O)[C@@H](O)[C@H](N)Cc1ccccc1

- EC50 [2]: < 100 nM
- EC50 [3]: < 100 nM
Structure (SMILES): CN[C@@H](C)C(=O)N[C@H](C(=O)N1CCC[C@H]1c1nc(C(=O)c2cccc(OCCOCCOCCOCC(=O)N3CCN(c4cc(Nc5ncc(C(=O)Nc6c(C)cccc6Cl)s5)nc(C)n4)CC3)c2)cs1)C1CCCCC1

- EC50 [4]: < 100 nM
Structure (SMILES): CC/C(=C(\c1ccc(O)cc1)c1ccc(OCCN(C)C(=O)COCCOCCOCc2cccc(O[C@H]3C[C@@H](C(=O)N[C@@H]4CCCc5ccccc54)N(C(=O)[C@@H](NC(=O)[C@H](C)NC)C4CCCCC4)C3)c2)cc1)c1ccccc1

- EC50 [4]: < 100 nM
Structure (SMILES): CC/C(=C(\c1ccc(O)cc1)c1ccc(OCCN(C)C(=O)COCCCCOc2cccc(C(=O)c3csc([C@@H]4CCCN4C(=O)[C@@H](NC(=O)[C@H](C)NC)C4CCCCC4)n3)c2)cc1)c1ccccc1
